The test deals with U87MG cells. In words: Cellular assay, inhibition of 2-HG production in U87MG cells. In kind it is cell-based. Conditions: Homo sapiens, U-87 MG, 48 h. On the procedure: Cells (HT1080 or U87MG) are grown in T125 flasks in DMEM containing 10% FBS, 1× penicillin/streptomycin and 500 ug/mL G418 (present in U87MG cells only). They are harvested by trypsin and seeded into 96 well white bottom plates at a density of 5000 cell/well in 100 ul/well in DMEM with 10% FBS. […] Cells are incubated overnight at 37° C. in 5% CO2. The next day test compounds are made up at 2× the final concentration and 100 ul are added to each cell well. The final concentration of DMSO is 0.2% and the DMSO control wells are plated in row G. The plates are then placed in the incubator for 48 hours. […] The cell plate is placed back in the incubator for another 24 hours. At 72 hours post compound addition, 10 mL/plate of Promega Cell Titer Glo reagent is thawed and mixed. The cell plate is removed from the incubator and allowed to equilibrate to room temperature. Then 100 ul of Promega Cell Titer Glo reagent is added to each well of media. The cell plate is then placed on an orbital shaker for 10 minutes and then allowed to sit at room temperature for 20 minutes. The plate is then read for luminescence with an integration time of 500 ms.

Experimental findings from patent US10640534B2 (Agios Pharmaceuticals, Inc., priority 2012, dated 2020) are described below.

For orientation: IC50 means the midpoint of a concentration-inhibition curve. Lower therefore signals higher potency.

As to `N#Cc1ccnc(N2C(=O)CC[C@H]2C(=O)N(c2cccc3[nH]cnc23)C(C(=O)NC2CCC(F)(F)CC2)c2ccccc2Cl)c1` (stereo partly drawn) [Compound 141, (2S)—N-(1H-benzo[d]imidazol-7-yl)-N-(1-(2-chlorophenyl)-2-((4,4-difluorocyclohexyl)amino)-2-oxoethyl)-1-(4-cyanopyridin-2-yl)-5-oxopyrrolidine-2-carboxamide], the IC50 was < 100 nM.

In the case of `N#Cc1cc(F)cc(N(C(=O)[C@@H]2CCC(=O)N2c2cc(C#N)ccn2)[C@H](C(=O)NC2CC(F)(F)C2)c2ccccc2Cl)c1` [Compound 177, (S)—N—((S)-1-(2-Chlorophenyl)-2-(3,3-difluorocyclobutylamino)-2-oxoethyl)-N-(3-cyano-5-fluorophenyl)-1-(4-cyanopyridin-2-yl)-5-oxopyrrolidine-2-carboxamide], the IC50 is < 100 nM.

In the case of `N#Cc1ccnc(N2C(=O)OCC[C@H]2C(=O)N(c2cc(F)cc(F)c2)[C@H](C(=O)NC2CCC(F)(F)CC2)c2ccccc2Cl)c1` [Compound 139, (S)—N—((S)-1-(2-Chlorophenyl)-2-((4,4-difluorocyclohexyl)amino)-2-oxoethyl)-3-(4-cyanopyridin-2-yl)-N-(3,5-difluorophenyl)-2-oxo-1,3-oxazinane-4-carboxamide], the IC50 is < 100 nM.

Take `N#Cc1ccnc(N2C(=O)CC[C@H]2C(=O)N(c2ccc3[nH]ncc3c2)[C@H](C(=O)NC2CC(F)(F)C2)c2ccccc2Cl)c1` [Compound 175, (S)—N—((S)-1-(2-Chlorophenyl)-2-((3,3-difluorocyclobutyl)amino)-2-oxoethyl)-1-(4-cyanopyridin-2-yl)-N-(1H-indazol-5-yl)-5-oxopyrrolidine-2-carboxamide]: the IC50 was < 100 nM.

As to `CS(=O)(=O)c1cccc(N(C(=O)[C@@H]2CCC(=O)N2c2nccc(C#N)n2)[C@H](C(=O)NC2CCC(F)(F)CC2)c2ccccc2Cl)c1` [Compound 103, (S)—N—((S)-1-(2C)-2-((4,4-difluorocyclohexyl)amino)-2-oxoethyl)-1-(4-cyanopyrimidin-2-yl)-N-(3-(methylsulfonyl)phenyl)-5-oxopyrrolidine-2-carboxamide], the IC50 was in the range of 100 to 500 nM.

On to `N#Cc1ccnc(N2C(=O)[C@H](F)C[C@H]2C(=O)N(c2cccc(F)c2)[C@H](C(=O)NC2CCC(F)(F)CC2)c2ccccc2Cl)c1` [Compound 151, (2S,4R)—N—((S)-1-(2-Chlorophenyl)-2-((4,4-difluorocyclohexyl)amino)-2-oxoethyl)-1-(4-cyanopyridin-2-yl)-4-fluoro-N-(3-fluorophenyl)-5-oxopyrrolidine-2-carboxamide], for which the 50% inhibitory concentration (IC50) was < 100 nM.

Take `O=C(NC1CCC(F)(F)CC1)[C@H](c1ccccc1Cl)N(C(=O)[C@@H]1COC(=O)N1c1ncccn1)c1cccc(F)c1` [Compound 76, (S)—N—((S)-1-(2-Chlorophenyl)-2-((4,4-difluorocyclohexyl)amino)-2-oxoethyl)-N-(3-fluoro-phenyl)-2-oxo-3-(pyrimidin-2-yl)oxazolidine-4-carboxamide]: the IC50 is < 100 nM.

For the compound `N#Cc1ccnc(N2C(=O)CC[C@H]2C(=O)N(c2cc(F)cc(C3CC3)c2)[C@H](C(=O)NC2CCC(F)(F)CC2)c2ccccc2Cl)c1` [Compound 202, (S)—N—((S)-1-(2-Chlorophenyl)-2-((4,4-difluorocyclohexyl)amino)-2-oxoethyl)-1-(4-cyanopyridin-2-yl)-N-(3-cyclopropyl-5-fluorophenyl)-5-oxopyrrolidine-2-carboxamide], the IC50 is < 100 nM.

Consider `N#Cc1ccnc(N2C(=O)CC[C@H]2C(=O)N(c2cc(F)cc(F)c2)[C@H](C(=O)NC2CC(F)(F)C2)c2ncccc2Cl)c1` [Compound 198, (S)—N—((S)-1-(3-Chloropyridin-2-yl)-2-(3,3-difluorocyclobutylamino)-2-oxoethyl)-1-(4-cyanopyridin-2-yl)-N-(3,5-difluorophenyl)-5-oxopyrrolidine-2-carboxamide], for which the IC50 was < 100 nM.

Regarding `N#Cc1ccnc(N2C(=O)OC[C@H]2C(=O)N(c2cncc(F)c2)[C@H](C(=O)NC2CC(F)(F)C2)c2ccccc2Cl)c1` [Compound 135, (S)—N—((S)-1-(2-Chlorophenyl)-2-((3,3-difluorocyclobutyl)amino)-2-oxoethyl)-3-(4-cyanopyridin-2-yl)-N-(5-fluoropyridin-3-yl)-2-oxooxazolidine-4-carboxamide], the IC50 is < 100 nM.

In the case of `O=C(NC1CC(F)(F)C1)[C@H](c1ccccc1Cl)N(C(=O)[C@@H]1CCC(=O)N1c1nccs1)c1cccc(F)c1` [Compound 14], the IC50 is 100 to 500 nM.

As to `N#Cc1ccnc(N2C(=O)[C@@H](O)C[C@H]2C(=O)N(c2cccc(F)c2)[C@H](C(=O)NC2CCC(F)(F)CC2)c2ccccc2Cl)c1` [Compound 172, (2S,4S)—N—((S)-1-(2-Chlorophenyl)-2-((4,4-difluorocyclohexyl)amino)-2-oxoethyl)-1-(4-cyano-pyridin-2-yl)-N-(3-fluorophenyl)-4-hydroxy-5-oxopyrrolidine-2-carboxamide], the IC50 is < 100 nM.

Regarding `N#Cc1ccnc(N2C(=O)[C@H](O)C[C@H]2C(=O)N(c2cc(F)cc(F)c2)[C@@H](C(=O)NC2CCC(F)(F)CC2)c2ccccc2Cl)n1` [Compound 126, (2S,4R)—N—((R)-1-(2-Chlorophenyl)-2-(4,4-difluorocyclohexylamino)-2-oxoethyl)-1-(4-cyanopyrimidin-2-yl)-N-(3,5-difluorophenyl)-4-hydroxy-5-oxopyrrolidine-2-carboxamide], the IC50 was 100 to 500 nM.

As for `N#Cc1ccnc(N2C(=O)CNC[C@H]2C(=O)N(c2cc(F)cc(F)c2)[C@H](C(=O)NC2CC(F)(F)C2)c2ccccc2Cl)n1` [Compound 99, (S)—N—((S)-1-(2-chlorophenyl)-2-((3,3-difluorocyclobutyl)amino)-2-oxoethyl)-1-(4-cyanopyrimidin-2-yl)-N-(3,5-difluorophenyl)-6-oxopiperazine-2-carboxamide], the IC50 is < 100 nM.

For the compound `N#Cc1cccc(N(C(=O)[C@@H]2CCC(=O)N2c2nccc(C#N)n2)[C@H](C(=O)NC2CC(F)(F)C2)c2ccccc2Cl)c1` [Compound 167, (S)—N—((S)-1-(2-Chlorophenyl)-2-((3,3-difluorocyclobutyl)amino)-2-oxoethyl)-N-(3-cyanophenyl)-1-(4-cyanopyrimidin-2-yl)-5-oxopyrrolidine-2-carboxamide], the IC50 is < 100 nM.

In the case of `O=C(NC1CCCCC1)[C@H](c1ccccc1Cl)N(C(=O)[C@@H]1CCC(=O)N1c1ncccn1)c1cccc(F)c1` [Compound 7], the IC50 is < 100 nM.

Regarding `N#Cc1ccnc(N2C(=O)[C@H](O)C[C@H]2C(=O)N(c2cccc(F)c2)[C@H](C(=O)NC2CCC(F)(F)CC2)c2ccccc2Cl)n1` [Compound 123, (2S,4R)—N—((S)-1-(2-Chlorophenyl)-2-((4,4-difluorocyclohexyl)amino)-2-oxoethyl)-1-(4-cyanopyrimidin-2-yl)-N-(3-fluorophenyl)-4-hydroxy-5-oxopyrrolidine-2-carboxamide], the IC50 was < 100 nM.

Consider `N#Cc1ccnc(N2C(=O)CC[C@H]2C(=O)N(c2cccc(OC(F)F)c2)[C@H](C(=O)NC2CC(F)(F)C2)c2ccccc2Cl)n1` [Compound 194, (S)—N—((S)-1-(2-Chlorophenyl)-2-((3,3-difluorocyclobutyl)amino)-2-oxoethyl)-1-(4-cyanopyrimidin-2-yl)-N-(3-(difluoromethoxy)phenyl)-5-oxopyrrolidine-2-carboxamide], for which the IC50 was < 100 nM.

As for `N#Cc1ccnc(N2C(=O)CC[C@H]2C(=O)N(c2cccc(CCO)c2)[C@H](C(=O)NC2CC(F)(F)C2)c2ccccc2Cl)c1` [Compound 160, (S)—N—((S)-1-(2-Chlorophenyl)-2-((3,3-difluorocyclobutyl)amino)-2-oxoethyl)-1-(4-cyanopyridin-2-yl)-N-(3-(2-hydroxyethyl)phenyl)-5-oxopyrrolidine-2-carboxamide], the IC50 is < 100 nM.

For `COc1cccc(N(C(=O)[C@@H]2CCC(=O)N2c2nccc(C#N)n2)[C@H](C(=O)NC2CC(F)(F)C2)c2ccccc2Cl)c1` [Compound 164, (S)—N—((S)-1-(2-Chlorophenyl)-2-(3,3-difluorocyclobutyl-amino)-2-oxoethyl)-1-(4-cyanopyrimidin-2-yl)-N-(3-methoxyphenyl)-5-oxopyrrolidine-2-carboxamide], the IC50 is < 100 nM.

Take `N#Cc1ccnc(N2C(=O)OCC[C@H]2C(=O)N(c2cc(F)cc(F)c2)[C@H](C(=O)NC2CC(F)(F)C2)c2ccccc2Cl)n1` [Compound 154, (S)—N—((S)-1-(2-Chlorophenyl)-2-((3,3-difluorocyclobutyl)amino)-2-oxoethyl)-3-(4-cyanopyrimidin-2-yl)-N-(3,5-difluorophenyl)-2-oxo-1,3-oxazinane-4-carboxamide]: the IC50 was < 100 nM.

As to `[2H]c1c([2H])c([2H])c([C@@H](C(=O)NC2CC(F)(F)C2)N(C(=O)[C@@H]2CCC(=O)N2c2cc(C#N)ccn2)c2cc(F)cc(F)c2)c(Cl)c1[2H]` [Compound 163], the IC50 is < 100 nM.

For `O=C(NC1CCC(F)(F)CC1)[C@H](c1ccccc1Cl)N(C(=O)[C@@H]1CCC(=O)N1c1ncccn1)c1cccc(F)c1` [Compound 4, (S)—N—((S)-1-(2-chlorophenyl)-2-((4,4-difluorocyclohexyl)amino)-2-oxoethyl)-N-(3-fluorophenyl)-5-oxo-1-(pyrimidin-2-yl)pyrrolidine-2-carboxamide], the IC50 is < 100 nM.
